Test results from ChEMBL document CHEMBL1201862, “PubChem BioAssay data set” (2004).
The source made the active and inactive calls.

What was measured:
[1] = Luminescence Cell-Based Dose Response HTS to Identify Activators of Luciferase Translation or Activity in H4 […] Cells. [Related pubchem assays: 1829 (Project Summary), 1814 (Primary HTS)]; type: functional
H4 = test: Luminescence Cell-Based Dose Response HTS to Identify Activators of 5'UTR Stem-Loop Driven Prion Protein mRNA Translation in H4 Neuroglioblastoma Cells. [Related pubchem assays: 1829 (Project Summary), 1814 (Primary HTS)]; type: functional; conditions: Homo sapiens
[2] = target: T1, Heat shock factor protein 1 (Mus musculus, UniProt P38532); test: inhibition of MG132-induced HSE-luciferase signal, confirmation, cell-based, NIH3T3, luminescence, dose retest (AID 2382); type: functional;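 also: NIH3T3 fibroblasts with HSF1-driven luciferase reporter stressed by proteasome inhibitor MG132; luminescence from HSF1-driven luciferase expression after 8 hours of MG132 stress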
T1 sequence (P38532 whole entry): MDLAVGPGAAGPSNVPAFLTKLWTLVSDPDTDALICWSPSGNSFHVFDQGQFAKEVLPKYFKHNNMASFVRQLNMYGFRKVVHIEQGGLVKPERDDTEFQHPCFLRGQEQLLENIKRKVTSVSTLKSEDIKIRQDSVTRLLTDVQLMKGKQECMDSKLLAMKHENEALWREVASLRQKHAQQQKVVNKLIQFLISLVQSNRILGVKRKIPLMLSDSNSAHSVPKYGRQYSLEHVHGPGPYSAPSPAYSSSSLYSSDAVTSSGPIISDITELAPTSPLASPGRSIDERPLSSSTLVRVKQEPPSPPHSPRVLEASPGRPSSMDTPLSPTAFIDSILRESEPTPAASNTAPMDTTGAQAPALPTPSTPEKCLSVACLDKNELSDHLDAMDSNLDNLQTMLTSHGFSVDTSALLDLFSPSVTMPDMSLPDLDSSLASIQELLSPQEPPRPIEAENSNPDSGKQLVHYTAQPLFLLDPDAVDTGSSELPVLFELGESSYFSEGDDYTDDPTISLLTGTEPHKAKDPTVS

[3] = system: Streptococcus sp. 'group A'; test: growth inhibition of control SK(-) GAS strain, dose response, counter-screen for streptokinase expression inhibitor project, luminescence, kanamycin, BacTiterGlo, confirmation (AID 1900); type: functional, organism-based
Streptokinase A = target: T2, Streptokinase A (Streptococcus pyogenes serotype M1, UniProt P10520); test: S. pyogenes streptokinase expression inhibitors, potency, dose response, plasminogen activation absorbance, OD405 (AID 1914); type: functional, Streptococcus pyogenes M1 GAS;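 also: secreted streptokinase activity via plasminogen activation per viability signal from cell pellet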
T2 sequence (P10520 whole entry): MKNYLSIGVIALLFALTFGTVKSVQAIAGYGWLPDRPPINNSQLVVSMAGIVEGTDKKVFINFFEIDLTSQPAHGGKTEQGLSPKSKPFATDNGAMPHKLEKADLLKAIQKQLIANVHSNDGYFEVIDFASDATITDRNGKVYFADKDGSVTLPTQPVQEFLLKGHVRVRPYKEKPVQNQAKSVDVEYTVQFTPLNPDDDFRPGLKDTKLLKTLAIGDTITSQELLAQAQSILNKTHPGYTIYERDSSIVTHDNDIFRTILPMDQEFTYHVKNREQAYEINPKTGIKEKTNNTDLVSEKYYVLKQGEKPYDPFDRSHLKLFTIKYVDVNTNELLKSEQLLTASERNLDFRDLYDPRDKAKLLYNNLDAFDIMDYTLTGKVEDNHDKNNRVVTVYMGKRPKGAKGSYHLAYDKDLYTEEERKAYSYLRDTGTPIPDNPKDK

Streptococcus = test: Group A Streptococcus viability loss, dose response, counter-screen for streptokinase expression inhibitor project, luminescence, BacTiterGlo (AID 1915); type: functional, organism-based;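 also: potency for reduction of bacterial viability or growth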
Cytochrome P450 2C19 = Cytochrome P450 2C19 (Homo sapiens, UniProt P33261); test: Cytochrome panel assay with activity outcomes. Panel member name: p450-cyp2c19 Compounds with AC50 equal or less than 10 uM are considered active; type: functional; conditions: read-out: AC50
Cytochrome P450 3A4 = Cytochrome P450 3A4 (Homo sapiens, UniProt P08684);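 also: CYP3A4 tested as one member of a cytochrome P450 panel screen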
Cytochrome P450 2C9 = Cytochrome P450 2C9 (Homo sapiens, UniProt P11712)
Cytochrome P450 2D6 = Cytochrome P450 2D6 (Homo sapiens, UniProt P10635);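 also: CYP2D6 member of a cytochrome P450 panel assay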
[4] = target: T3, Replicative DNA helicase DnaB (Mycobacterium tuberculosis, UniProt P9WMR3); test: DnaB intein splicing inhibitors, dose response, biochemical, cell-free fluorescence (AID 449749); type: functional
T3 sequence (P9WMR3 whole entry): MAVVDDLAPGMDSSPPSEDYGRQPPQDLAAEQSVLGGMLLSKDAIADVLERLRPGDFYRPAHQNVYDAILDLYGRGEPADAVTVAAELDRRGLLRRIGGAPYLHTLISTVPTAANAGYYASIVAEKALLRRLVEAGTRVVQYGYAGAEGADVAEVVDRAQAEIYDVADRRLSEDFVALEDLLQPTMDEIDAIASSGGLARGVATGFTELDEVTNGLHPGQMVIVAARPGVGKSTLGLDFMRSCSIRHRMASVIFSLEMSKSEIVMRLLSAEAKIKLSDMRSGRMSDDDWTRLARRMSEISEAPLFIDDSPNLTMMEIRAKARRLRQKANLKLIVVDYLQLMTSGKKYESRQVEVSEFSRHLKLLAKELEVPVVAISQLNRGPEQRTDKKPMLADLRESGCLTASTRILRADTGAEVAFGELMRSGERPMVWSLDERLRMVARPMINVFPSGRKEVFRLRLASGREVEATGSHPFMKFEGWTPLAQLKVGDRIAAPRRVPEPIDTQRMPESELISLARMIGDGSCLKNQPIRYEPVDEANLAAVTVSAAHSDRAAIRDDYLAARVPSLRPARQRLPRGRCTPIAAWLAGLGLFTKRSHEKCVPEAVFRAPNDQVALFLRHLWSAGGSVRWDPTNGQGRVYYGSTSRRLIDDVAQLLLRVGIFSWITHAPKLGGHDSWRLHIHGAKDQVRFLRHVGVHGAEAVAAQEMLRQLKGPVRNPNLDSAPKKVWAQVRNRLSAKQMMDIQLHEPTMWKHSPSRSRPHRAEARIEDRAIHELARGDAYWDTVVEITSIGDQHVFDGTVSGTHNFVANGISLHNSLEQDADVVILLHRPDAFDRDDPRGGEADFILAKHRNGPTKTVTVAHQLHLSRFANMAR

Protein RecA = target: T4, Protein RecA (Mycobacterium tuberculosis, UniProt P9WHJ3); test: Fluorescence Cell-Free Homogeneous Dose Retest to Identify Inhibitors of RecA-Intein Splicing Activity. [Related pubchem assays (depositor defined):AID2097, AID2223, AID489010, AID492950]; type: functional
T4 sequence (P9WHJ3 whole entry): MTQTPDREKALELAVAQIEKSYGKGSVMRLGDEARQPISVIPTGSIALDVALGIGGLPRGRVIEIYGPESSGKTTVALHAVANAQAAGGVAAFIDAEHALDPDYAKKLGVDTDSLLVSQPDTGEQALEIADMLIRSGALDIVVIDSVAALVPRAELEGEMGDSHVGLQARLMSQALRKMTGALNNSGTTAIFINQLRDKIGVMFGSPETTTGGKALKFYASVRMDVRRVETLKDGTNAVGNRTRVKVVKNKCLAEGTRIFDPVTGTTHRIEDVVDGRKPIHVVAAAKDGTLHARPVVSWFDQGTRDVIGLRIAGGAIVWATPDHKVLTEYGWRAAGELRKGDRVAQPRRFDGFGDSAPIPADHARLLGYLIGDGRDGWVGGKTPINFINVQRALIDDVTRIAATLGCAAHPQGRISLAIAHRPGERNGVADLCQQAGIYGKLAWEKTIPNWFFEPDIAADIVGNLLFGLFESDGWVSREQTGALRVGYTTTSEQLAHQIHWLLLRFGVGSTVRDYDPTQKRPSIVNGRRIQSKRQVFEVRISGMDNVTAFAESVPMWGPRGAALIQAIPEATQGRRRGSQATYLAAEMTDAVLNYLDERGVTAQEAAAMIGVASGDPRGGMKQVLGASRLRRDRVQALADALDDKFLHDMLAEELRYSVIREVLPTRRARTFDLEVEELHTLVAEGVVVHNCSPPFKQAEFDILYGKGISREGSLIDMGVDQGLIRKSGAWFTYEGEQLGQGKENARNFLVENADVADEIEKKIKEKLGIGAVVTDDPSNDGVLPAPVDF

Sequence of Cytochrome P450 3A4 (P08684 whole entry): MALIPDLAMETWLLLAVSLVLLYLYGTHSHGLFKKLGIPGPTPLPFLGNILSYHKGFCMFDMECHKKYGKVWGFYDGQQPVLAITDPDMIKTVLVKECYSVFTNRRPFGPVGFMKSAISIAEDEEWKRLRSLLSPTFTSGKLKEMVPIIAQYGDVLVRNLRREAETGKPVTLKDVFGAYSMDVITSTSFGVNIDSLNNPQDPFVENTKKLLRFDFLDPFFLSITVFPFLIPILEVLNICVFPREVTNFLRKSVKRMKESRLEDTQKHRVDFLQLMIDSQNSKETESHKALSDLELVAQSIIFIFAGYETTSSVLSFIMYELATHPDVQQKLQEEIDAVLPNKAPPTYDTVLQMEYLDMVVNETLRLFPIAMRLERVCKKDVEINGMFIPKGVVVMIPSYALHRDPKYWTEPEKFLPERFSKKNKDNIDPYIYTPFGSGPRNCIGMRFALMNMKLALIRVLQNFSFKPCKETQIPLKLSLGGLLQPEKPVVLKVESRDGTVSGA
Sequence of Cytochrome P450 2D6 (P10635 whole entry): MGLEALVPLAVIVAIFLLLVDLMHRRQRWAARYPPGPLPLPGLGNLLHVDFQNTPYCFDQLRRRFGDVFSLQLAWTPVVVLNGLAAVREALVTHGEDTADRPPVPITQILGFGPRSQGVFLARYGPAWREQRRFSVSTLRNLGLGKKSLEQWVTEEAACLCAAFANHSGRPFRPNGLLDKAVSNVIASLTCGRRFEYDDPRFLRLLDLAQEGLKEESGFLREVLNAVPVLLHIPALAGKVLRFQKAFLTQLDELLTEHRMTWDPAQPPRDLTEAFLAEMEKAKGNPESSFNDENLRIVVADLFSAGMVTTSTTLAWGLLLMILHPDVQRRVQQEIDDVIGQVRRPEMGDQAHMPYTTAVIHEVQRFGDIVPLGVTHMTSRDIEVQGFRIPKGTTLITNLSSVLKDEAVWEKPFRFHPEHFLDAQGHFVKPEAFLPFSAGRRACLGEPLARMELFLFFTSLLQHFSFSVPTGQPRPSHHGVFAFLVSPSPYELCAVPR
Sequence of Cytochrome P450 2C19 (P33261 whole entry): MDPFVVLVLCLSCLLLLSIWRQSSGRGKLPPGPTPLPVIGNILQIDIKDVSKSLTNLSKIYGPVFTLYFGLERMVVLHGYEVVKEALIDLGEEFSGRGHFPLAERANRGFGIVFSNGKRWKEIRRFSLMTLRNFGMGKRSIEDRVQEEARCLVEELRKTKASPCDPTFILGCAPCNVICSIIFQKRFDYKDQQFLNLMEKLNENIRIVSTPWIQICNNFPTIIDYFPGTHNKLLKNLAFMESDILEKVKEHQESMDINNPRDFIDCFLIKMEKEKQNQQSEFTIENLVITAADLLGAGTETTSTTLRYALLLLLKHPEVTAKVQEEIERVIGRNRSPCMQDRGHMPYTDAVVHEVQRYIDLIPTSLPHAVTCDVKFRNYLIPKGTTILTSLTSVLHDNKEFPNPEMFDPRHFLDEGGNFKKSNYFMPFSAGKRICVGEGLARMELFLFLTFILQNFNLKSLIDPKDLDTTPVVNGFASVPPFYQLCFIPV
Sequence of Cytochrome P450 2C9 (P11712 whole entry): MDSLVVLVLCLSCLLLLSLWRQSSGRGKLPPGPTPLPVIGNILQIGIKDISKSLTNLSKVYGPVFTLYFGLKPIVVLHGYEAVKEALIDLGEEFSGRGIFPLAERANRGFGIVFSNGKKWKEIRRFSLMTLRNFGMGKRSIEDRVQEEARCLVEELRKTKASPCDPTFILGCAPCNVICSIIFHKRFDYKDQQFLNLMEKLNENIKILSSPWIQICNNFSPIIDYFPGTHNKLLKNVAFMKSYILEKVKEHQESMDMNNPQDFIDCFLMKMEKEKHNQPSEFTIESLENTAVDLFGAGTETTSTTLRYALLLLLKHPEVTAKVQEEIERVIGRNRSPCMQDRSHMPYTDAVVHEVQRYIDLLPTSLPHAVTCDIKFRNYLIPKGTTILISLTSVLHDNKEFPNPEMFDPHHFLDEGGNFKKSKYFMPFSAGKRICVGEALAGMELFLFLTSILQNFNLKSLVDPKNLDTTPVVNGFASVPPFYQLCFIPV

Cc1cc(=O)n2nc(-c3ccc(C(F)(F)F)cc3)sc2n1
EC50 [1]: > 120 µM (not active)
EC50 (H4): 8.75 µM (active)
EC50 [2]: > 195 µM (not active)

CN(CC(=O)Nc1ccc(F)cc1)C(=O)COC(=O)c1cc(S(=O)(=O)N(C)C)ccc1N1CCCC1
EC50 [2]: > 195 µM (not active)

COc1ccc(CCNCC(O)Cn2ccc3ccccc32)cc1OC (centres undefined)
EC50 [2]: > 100 µM (not active)

CCCn1c(N2CCN(CC(=O)NCc3cccs3)CC2)nc2ccccc21
EC50 [2]: > 195 µM (not active)

C=CCSc1nc(-c2ccccc2)c2cc(Cl)ccc2n1
EC50 [3]: 15 µM (active)
EC50 (Streptokinase A): 29.4 µM (active)
EC50 (Streptococcus): 46.4 µM (active)

Cc1ccc(Cn2c(Sc3ncccn3)nc3c2c(=O)[nH]c(=O)n3C)cc1
EC50 [2]: > 195 µM (not active)

CCN(CC(=O)Nc1ccccc1C(F)(F)F)C(=O)c1cc(-c2ccccc2)nn1-c1ccccc1
EC50 [3]: 19.9 µM (active)
EC50 (Streptokinase A): 23.9 µM (active)
EC50 (Streptococcus): > 150 µM (not active)

O=C(CSc1nnc(CNC(=O)c2ccc(F)cc2)o1)NCc1ccccc1
EC50 [3]: > 150 µM (not active)
EC50 (Streptokinase A): > 150 µM (not active)
EC50 (Streptococcus): > 150 µM (not active)

CNC(=O)c1ccsc1NC(=O)c1ccc(Cl)s1
EC50 [2]: > 195 µM (not active)

CCn1c(SCC(=O)N2CC(C)OC(C)C2)nc2c3ccccc3nc-2c1O (centres undefined)
EC50 [3]: > 150 µM (not active)
EC50 (Streptokinase A): > 150 µM (not active)
EC50 (Streptococcus): > 150 µM (not active)

O=C(OC(C(=O)NC1CCCC1)c1ccncc1)C1=Cc2ccccc2OC1 (centres undefined)
EC50 [2]: > 195 µM (not active)

CCOC(=O)c1cccc(NC(=S)N2CCN(c3ncc4c(=O)c(C(=O)O)cn(CC)c4n3)CC2)c1
EC50 [3]: 5.98 µM (active)
EC50 (Streptokinase A): > 150 µM (not active)
EC50 (Streptococcus): 29.9 µM (active)

O=C(c1cc(Br)c[nH]1)N1CCSCC1
EC50 [2]: > 195 µM (not active)

CCOc1ccc(N(CC(=O)NN=C2CCCC2)S(C)(=O)=O)cc1
EC50 [2]: > 195 µM (not active)

COc1cccc(-n2nc(-c3ccnn3-c3cccc(Cl)c3)c(=O)n(C)c2=O)c1
EC50 [2]: > 195 µM (not active)

CCN(c1ccc(OC)cc1)S(=O)(=O)c1nnc(NC(=O)c2ccccc2Cl)s1
EC50 [3]: 9.51 µM (active)
EC50 (Streptokinase A): 5.58 µM (active)
EC50 (Streptococcus): 99.3 µM (active)

O=C(Nc1cc(Sc2ccccn2)cc([N+](=O)[O-])c1)c1ccc([N+](=O)[O-])cc1
AC50 (Cytochrome P450 2C19): 5.01 µM (inconclusive)
AC50 (Cytochrome P450 3A4): 7.94 µM (inconclusive)
AC50 (Cytochrome P450 2C9): 10 µM (inconclusive)

Cc1cc(C)c2c(n1)sc1c(O)nc(SCc3ccccc3)nc12
EC50 [2]: > 195 µM (not active)

COc1ccc(C(=O)CSc2nnc(CNC(=O)c3ccc(S(=O)(=O)N(C)C)cc3)o2)cc1
EC50 [3]: > 150 µM (not active)
EC50 (Streptokinase A): > 150 µM (not active)
EC50 (Streptococcus): > 150 µM (not active)

COc1ccc(-c2cc(C3CCN(c4ncccc4[N+](=O)[O-])CC3)[nH]n2)cc1
EC50 [3]: 4.96 µM (active)
EC50 (Streptokinase A): > 150 µM (not active)
EC50 (Streptococcus): 13 µM (active)

O=C(CN1C(=O)NC(Cc2ccccc2)C1=O)Nc1ccc(OC(F)F)cc1 (centres undefined)
EC50 [2]: > 195 µM (not active)

O=C(NC1CCCCC1)C(=S)NC1CCCCC1
EC50 (H4): 2.43 µM (active)

Clc1ccc2[nH]c(-c3ccc(Cl)nc3)nc2c1
EC50 [1]: 22.3 µM (active)
EC50 (H4): > 120 µM (not active)

Cc1ccc(Cn2c(=O)n(Cc3ccco3)c(=O)c3ccccc32)cc1
EC50 [3]: 21.1 µM (active)
EC50 (Streptokinase A): > 150 µM (not active)
EC50 (Streptococcus): > 150 µM (not active)

COc1ccc(CCNCc2ccsc2)cc1OC
EC50 [2]: > 195 µM (not active)

CC(C)(C)c1csc(NC2=NS(=O)(=O)c3ccccc32)n1
EC50 (H4): > 120 µM (not active)

Cc1onc(-c2ccccc2Cl)c1C(=O)Nc1ccc(OCC(=O)N2CCOCC2)cc1
EC50 [2]: > 195 µM (not active)

COc1ccc(C2/C(=C(\O)c3ccccc3)C(C)=Nc3nc4ccccc4n32)c(OC)c1 (centres undefined)
EC50 [3]: 14.5 µM (active)
EC50 (Streptokinase A): > 150 µM (not active)
EC50 (Streptococcus): 37.3 µM (active)

CN1CCN(S(=O)(=O)c2ccc(Oc3ccc(F)c(Cl)c3)nc2)CC1
EC50 [2]: > 195 µM (not active)

COCCn1c(N)c(Sc2ccccc2[N+](=O)[O-])c(=O)[nH]c1=O
EC50 [2]: > 195 µM (not active)

COc1ccc(/C(C)=N/NC(=O)CNC(=O)/C=C\c2ccccc2)c(OC)c1
EC50 [2]: > 195 µM (not active)

CCCCOc1ccc(/N=C/c2ccc[nH]2)cc1
EC50 [2]: 33 µM (active)

O=C(Nc1ncc(Cc2cccc(Cl)c2)s1)c1cccs1
EC50 [3]: 3.67 µM (active)
EC50 (Streptokinase A): > 150 µM (not active)
EC50 (Streptococcus): 7.17 µM (active)
AC50 (Cytochrome P450 2D6): 7.08 µM (inconclusive)
AC50 (Cytochrome P450 3A4): 15.8 µM (inconclusive)

Oc1ccc(Nc2nc(-c3ccc(O)cc3)cs2)cc1
AC50 [4]: 111 µM (active)
EC50 (Protein RecA): 43.8 µM (active)
